Values belong to the molecule of their own block, whether it stands above or below them.
What was measured:
[1] = target: T1, AL9 (carboxy-terminal 181 amino acids of MBS) (Homo sapiens, UniProt O14974); assay: Yeast two-hybrid interaction assay (HIS3 and LacZ reporter activation); format: binding; settings: yeast strain Y190
T1 construct: expressed in transfected cells; host or cells: Saccharomyces cerevisiae Y190
T1 sequence (O14974 850-1030 limits assumed): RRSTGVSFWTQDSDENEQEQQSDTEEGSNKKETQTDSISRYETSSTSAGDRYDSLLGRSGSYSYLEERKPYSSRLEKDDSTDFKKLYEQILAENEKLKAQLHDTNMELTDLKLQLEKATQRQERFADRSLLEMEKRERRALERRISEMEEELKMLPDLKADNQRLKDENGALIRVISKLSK
Experimental: Colonies were lifted onto NitroPure nitrocellulose filters (MSI, Westboro, Mass.) which were then submerged in liquid nitrogen for 15 seconds, placed on presoaked Whatman #5 paper (in Z buffer: 60 mM Na2HPO4.7H2O, 40 mM NaH2PO4.H2O, 10 mM KCl, 1 mM MgSO4.7H2O), 50 mM β-mercaptoethanol, pH 7.0, and incubated at 37° for up to 12 hours.
Polypeptides interacting with cGK-PC97 were detected by their ability to activate transcription of histidine (HIS3) and β-galactosidase (LacZ) reporter genes via reconstitution of the Gal4 transcription factor. MaV103 colonies capable of growing on media lacking histidine were assayed for β-galactosidase activity using the colony-lift filter assay, according to standard techniques and as described herein. PC86 plasmids (containing the activated T cell library) from His3+, LacZ+ colonies were isolated and the library cDNA insert sequenced. 2.5×10^6 clones were screened from the T cell library.
To verify the interaction of AL9 with cGK1α, individual plasmids were introduced into S. cerevisiae strain Y190 (Clontech, Palo Alto, Calif.) by the lithium acetate method and assayed for reporter gene activation, as above. Y190 was transformed with cGK1α/GalDB or GalDB alone, in combination with AL9/GalAD or GalAD alone, and plated on Sc-His (synthetic complete medium, minus histidine) and YPD (yeast extract, peptone, dextrose) plates. β-galactosidase activity assays, on colonies from the YPD plate, were also performed. […] Thus, cotransformation of AL9 and cGK1α into S. cerevisiae confirmed the interaction of full-length cGK1α with the carboxy-terminal 181 amino acids of MBS.
Yeast strain Y190 was transformed with AL9/GalAD in combination with the cGK1α/GalDB truncation mutants and plated on YPD and Sc-His plates. Colony lift β-Galactosidase assays for the yeast colonies growing on the YPD plate were also performed. […] Thus, the C-terminus of MBS (AL9) interacts with the N-terminus of cGK1α (cGK1α1-59).
Site-directed mutagenesis was employed to replace selected leucine or isoleucine residues in the N-terminus of cGKIα. cGK1α1-59 was cloned into vector pcDNA3.1 (Invitrogen, Carlsbad, Calif.) using the method of Kunkel et al. (Kunkel et al., Methods in Enzymology, 154: 367-382, 1987). Three mutants of the leucine/isoleucine zipper of cGKIα were prepared: Leu12 and Ile19 to Ala (cGKLLZ1,2A); Leu26 to Pro (cGKLZ3P); Ile33 and Leu40 to Ala (cGKLZ4,5A). All mutants were confirmed by DNA sequencing, then subcloned into vector PC97 for expression in yeast. cGKLz1,2A, GKLZ3P, and GKLZ4,5A were each cotransformed with AL9 in yeast strain Y190 , and reporter gene activation assayed as described herein.

[2] = test system: myosin light chain phosphorylation in rat aortic smooth muscle cells; assay: Agonist-stimulated myosin light chain phosphorylation in intact vascular smooth muscle cells; format: cell-based; settings: n=3
From the text: The extent of agonist-stimulated myosin light chain phosphorylation was quantified in intact vascular smooth muscle cells transfected with either vector alone or a plasmid expressing the cGK1α leucine/isoleucine zipper domain (CGK1-59), to examine the effects of disrupting the cGK1α-MBS interaction on cGMP-mediated inhibition of myosin light chain phosphorylation. cGK1α1-59 was cloned into the mammalian expression vector pCI (Promega, Madison, Wis.). Rat aortic smooth muscle cells of passage 6 through 10 were transfected with either vector alone (pCI) or cDNA for the leucine/isoleucine zipper peptide from cGK (cGK1α1-59pCI) by electroporation. Cells were arrested in DME supplemented with insulin, ascorbic acid and transferrin, then stimulated with 2 μM of the thromboxane analogue U46619 for 1 minute in the absence or presence of 20 minute pretreatment with 1 mM 8-Br-cGMP. Following treatment, cells were precipitated with trichloroacetic acid, washed with acetone, and protein was subjected to glycerol-urea electrophoresis (Taylor et al., J. Biol Chem. 263, 14456, 1988). Myosin light chain phosphorylation state was quantified by immunoblotting the unphosphorylated and phosphorylated forms of myosin light chain with monoclonal antimyosin light chain antibody (Sigma, clone MY-21). Protein bands were analyzed by densitometry. Statistical analysis was performed using Student-Newman-Keuls method. Data represent the means+/−standard error of three separate experiments in duplicate.

[3] = target: T2, PP1M phosphatase activity (Homo sapiens, UniProt P62140); assay: Phosphatase assay in cGKIα immunopellets; format: biochemical
T2 construct: cGKIα was immunoprecipitated and phosphatase activity was assayed in the immunopellets as described herein; endogenous in cells; host or cells: human saphenous vein smooth muscle cells
T2 sequence (P62140 whole entry): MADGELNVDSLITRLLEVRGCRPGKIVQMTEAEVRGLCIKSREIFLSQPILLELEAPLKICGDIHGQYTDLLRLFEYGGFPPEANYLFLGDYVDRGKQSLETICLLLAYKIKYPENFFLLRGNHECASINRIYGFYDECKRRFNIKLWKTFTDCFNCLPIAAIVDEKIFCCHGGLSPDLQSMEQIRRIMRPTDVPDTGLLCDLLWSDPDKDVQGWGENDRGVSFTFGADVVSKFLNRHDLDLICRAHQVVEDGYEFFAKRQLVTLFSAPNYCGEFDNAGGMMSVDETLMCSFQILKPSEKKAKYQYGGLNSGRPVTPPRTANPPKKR
T2 sequence (O14974 whole entry partner): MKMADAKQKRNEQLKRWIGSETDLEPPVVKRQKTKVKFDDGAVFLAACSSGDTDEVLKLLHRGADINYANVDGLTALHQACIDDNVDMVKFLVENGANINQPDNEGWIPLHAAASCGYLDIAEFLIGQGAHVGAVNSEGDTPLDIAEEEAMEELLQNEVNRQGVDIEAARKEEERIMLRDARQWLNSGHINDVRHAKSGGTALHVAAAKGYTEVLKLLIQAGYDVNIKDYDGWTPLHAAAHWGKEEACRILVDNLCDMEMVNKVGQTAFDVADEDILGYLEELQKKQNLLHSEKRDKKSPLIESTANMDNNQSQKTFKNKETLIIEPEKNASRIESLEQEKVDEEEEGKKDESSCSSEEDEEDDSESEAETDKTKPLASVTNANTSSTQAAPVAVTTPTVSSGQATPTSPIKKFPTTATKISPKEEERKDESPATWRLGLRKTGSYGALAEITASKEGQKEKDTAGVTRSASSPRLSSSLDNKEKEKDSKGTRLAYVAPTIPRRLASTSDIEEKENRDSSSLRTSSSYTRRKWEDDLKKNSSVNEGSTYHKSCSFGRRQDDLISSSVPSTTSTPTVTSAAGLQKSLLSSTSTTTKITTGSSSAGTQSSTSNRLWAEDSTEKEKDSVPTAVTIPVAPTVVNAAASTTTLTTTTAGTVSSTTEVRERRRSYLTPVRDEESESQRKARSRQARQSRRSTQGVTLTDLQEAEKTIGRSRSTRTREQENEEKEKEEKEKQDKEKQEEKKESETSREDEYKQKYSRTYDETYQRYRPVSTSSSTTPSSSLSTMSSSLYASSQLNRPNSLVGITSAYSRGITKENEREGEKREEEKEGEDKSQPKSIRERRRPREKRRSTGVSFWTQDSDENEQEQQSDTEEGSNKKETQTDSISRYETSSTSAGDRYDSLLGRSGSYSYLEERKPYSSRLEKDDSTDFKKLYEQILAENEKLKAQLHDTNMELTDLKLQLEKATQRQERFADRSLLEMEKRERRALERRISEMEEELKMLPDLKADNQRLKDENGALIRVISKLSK
T2 sequence (Q13976 whole entry partner): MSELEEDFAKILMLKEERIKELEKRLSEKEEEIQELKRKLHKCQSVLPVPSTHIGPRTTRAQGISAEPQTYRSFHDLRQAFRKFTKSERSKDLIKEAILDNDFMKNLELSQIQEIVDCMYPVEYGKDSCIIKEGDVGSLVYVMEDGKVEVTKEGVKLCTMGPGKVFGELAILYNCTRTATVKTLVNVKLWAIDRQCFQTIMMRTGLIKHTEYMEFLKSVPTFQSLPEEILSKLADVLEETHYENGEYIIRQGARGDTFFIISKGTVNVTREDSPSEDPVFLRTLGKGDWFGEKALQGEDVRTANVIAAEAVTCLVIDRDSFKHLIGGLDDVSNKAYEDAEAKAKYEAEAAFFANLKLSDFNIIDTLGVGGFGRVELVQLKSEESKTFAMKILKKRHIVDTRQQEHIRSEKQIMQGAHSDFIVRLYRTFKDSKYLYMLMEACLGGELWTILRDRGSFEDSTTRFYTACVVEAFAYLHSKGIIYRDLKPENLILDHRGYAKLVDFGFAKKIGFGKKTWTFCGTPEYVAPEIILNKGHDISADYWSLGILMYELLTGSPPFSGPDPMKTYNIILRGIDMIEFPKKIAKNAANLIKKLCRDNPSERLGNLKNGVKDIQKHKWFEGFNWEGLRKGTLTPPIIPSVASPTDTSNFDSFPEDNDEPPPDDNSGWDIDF
Experimental: Immunopellets, prepared as described herein, were washed and resuspended in phosphatase assay buffer A (20 mM MOPS, 20 mM glucose, 1 mM dithiothreitol, 1 mM theophylline, 1 mg/ml BSA, and 5 mM azide, pH 7.5). ^32P-labeled phosphorylase a (final concentration 10 μM; Dr. D. Brautigan, University of Virginia, Va.) in either buffer A alone, buffer A with 10 mM 8-bromo-cGMP, buffer A with 2 nM okadaic acid, or buffer A with 1 μM okadaic acid was added to the immunopellets. The reactions were incubated at 30° C. for 30 minutes and terminated with trichloroacetic acid. In separate experiments, ^32P-myosin light chains were used as substrate in place of phosphorylase a.
PP1M phosphatase activity in the cGKIα immunoprecipitates was measured against two known PP1M substrates, myosin light chain and phosphorylase a. cGKIα was immunoprecipitated and phosphatase activity was assayed in the immunopellets as described herein.

PP1M = assay: Phosphatase assay in anti-MBS immunopellets; format: biochemical, human

interaction with AL9/MBS in yeast two-hybrid (HIS and β-Gal reporter activation) [1]: failed to interact with MBS
Molecule: cGKLZ1,2A: cGK1α1-59 mutant, Leu12 and Ile19 to Ala (MSELEEDFAKIAMLKEERAKELEKRLSEKEEEIQELKRKLHKCQSVLPVPSTHIGPRTT; isoform alpha; UniProt Q13976 1-59, looked up, variant L12A I19A)

interaction with AL9/MBS in yeast two-hybrid (HIS and β-Gal reporter activation) [1]: interacted with AL9
Molecule: cGK1α1-59: cGK1α truncation mutant containing amino acids 1-59, leucine/isoleucine zipper domain (MSELEEDFAKILMLKEERIKELEKRLSEKEEEIQELKRKLHKCQSVLPVPSTHIGPRTT; isoform alpha; UniProt Q13976 1-59, looked up, fragment)

increase of PP1 phosphatase activity in the MBS immunopellet (PP1M; 8-bromo-cGMP added to anti-MBS immunopellets, n=5): 32+/−13%
Molecule: Nc1nc2c(nc(Br)n2[C@@H]2O[C@@H]3COP(=O)(O)O[C@H]3[C@H]2O)c(=O)[nH]1 [8-bromo-cGMP]
inhibition of U46619-stimulated myosin light chain phosphorylation ([2]; cells expressing cGK1-59, 20 minute pretreatment with 1 mM 8-Br-cGMP): 35%
inhibition of U46619-mediated myosin light chain phosphorylation ([2]; control-transfected cells, 20 minute pretreatment with 1 mM 8-Br-cGMP): 79+/−17%

interaction with AL9/MBS in yeast two-hybrid (HIS and β-Gal reporter activation) [1]: weak association with MBS
Molecule: cGKLZ4,5A: cGK1α1-59 mutant, Ile33 and Leu40 to Ala (MSELEEDFAKILMLKEERIKELEKRLSEKEEEAQELKRKAHKCQSVLPVPSTHIGPRTT; isoform alpha residues 1-59; UniProt Q13976 1-59, looked up, variant I33A L40A)

interaction with AL9/MBS in yeast two-hybrid (HIS and β-Gal reporter activation) [1]: failed to associate with AL9
B1: cGK1α68-446: cGK1α mutant corresponding to amino acids 68-446 (protein, UniProt Q13976 68-446, looked up, fragment)
chain: PQTYRSFHDLRQAFRKFTKSERSKDLIKEAILDNDFMKNLELSQIQEIVDCMYPVEYGKDSCIIKEGDVGSLVYVMEDGKVEVTKEGVKLCTMGPGKVFGELAILYNCTRTATVKTLVNVKLWAIDRQCFQTIMMRTGLIKHTEYMEFLKSVPTFQSLPEEILSKLADVLEETHYENGEYIIRQGARGDTFFIISKGTVNVTREDSPSEDPVFLRTLGKGDWFGEKALQGEDVRTANVIAAEAVTCLVIDRDSFKHLIGGLDDVSNKAYEDAEAKAKYEAEAAFFANLKLSDFNIIDTLGVGGFGRVELVQLKSEESKTFAMKILKKRHIVDTRQQEHIRSEKQIMQGAHSDFIVRLYRTFKDSKYLYMLMEACLGGEL
modifications: isoform alpha

interaction with AL9/MBS in yeast two-hybrid (HIS and β-Gal reporter activation) [1]: failed to associate with AL9
B2: cGK1α68-667: cGK1α mutant corresponding to amino acids 68-667 (protein, UniProt Q13976 68-667, looked up, fragment)
chain: PQTYRSFHDLRQAFRKFTKSERSKDLIKEAILDNDFMKNLELSQIQEIVDCMYPVEYGKDSCIIKEGDVGSLVYVMEDGKVEVTKEGVKLCTMGPGKVFGELAILYNCTRTATVKTLVNVKLWAIDRQCFQTIMMRTGLIKHTEYMEFLKSVPTFQSLPEEILSKLADVLEETHYENGEYIIRQGARGDTFFIISKGTVNVTREDSPSEDPVFLRTLGKGDWFGEKALQGEDVRTANVIAAEAVTCLVIDRDSFKHLIGGLDDVSNKAYEDAEAKAKYEAEAAFFANLKLSDFNIIDTLGVGGFGRVELVQLKSEESKTFAMKILKKRHIVDTRQQEHIRSEKQIMQGAHSDFIVRLYRTFKDSKYLYMLMEACLGGELWTILRDRGSFEDSTTRFYTACVVEAFAYLHSKGIIYRDLKPENLILDHRGYAKLVDFGFAKKIGFGKKTWTFCGTPEYVAPEIILNKGHDISADYWSLGILMYELLTGSPPFSGPDPMKTYNIILRGIDMIEFPKKIAKNAANLIKKLCRDNPSERLGNLKNGVKDIQKHKWFEGFNWEGLRKGTLTPPIIPSVASPTDTSNFDSFPEDNDEPPPDDNSGW
modifications: isoform alpha

More lines, now with the values behind:

Molecule: cGKLZ3P: cGK1α1-59 mutant, Leu26 to Pro (MSELEEDFAKILMLKEERIKELEKRPSEKEEEIQELKRKLHKCQSVLPVPSTHIGPRTT; isoform alpha; UniProt Q13976 1-59, looked up, variant L26P)
interaction with AL9/MBS in yeast two-hybrid (HIS and β-Gal reporter activation) [1]: failed to interact with MBS

Molecule: CCCCC[C@H](O)/C=C/[C@@H]1[C@@H](C/C=C\CCCC(=O)O)[C@H]2CO[C@@H]1C2 [U46619]
myosin light chain phosphorylation ([2]; 2 μM U46619 for 1 minute, baseline 10+/−2%, vector control and cGK1-59-transfected cells): 68+/−2%

Molecule: C=C1[C@@H](O)[C@@H]2O[C@]3(CC[C@H](/C=C/[C@@H](C)[C@@H]4CC(C)=C[C@@]5(O[C@H](C[C@@](C)(O)C(=O)O)CC[C@H]5O)O4)O3)CC[C@H]2O[C@@H]1[C@@H](O)C[C@H](C)[C@H]1O[C@@]2(CCCCO2)CC[C@H]1C [okadaic acid]
inhibition at 0.002 µM ([3]; 2 nM okadaic acid, n=3, P=NS): 12%
inhibition at 1 µM ([3]; 1 μM okadaic acid, n=3, p<0.001 vs. untreated): 79%

Molecule: Nc1nc2c(nc(Sc3ccc(Cl)cc3)n2[C@@H]2O[C@@H]3CO[P@@](=O)(S)O[C@H]3[C@H]2O)c(=O)[nH]1 [Rp-8-pCPT-cGMPS]
effect on activation of PP1M by 8-bromo-cGMP (PP1M; preincubation of the complex with the inhibitor, two separate experiments): prevented
